Species: Rattus norvegicus
Assay: Open TG-GATES - Regimen: Single
Assay type: toxicity, organism-based, Sprague-Dawley
Parameters: regimen Single, gender Male, age 6 weeks
Conditions: in vivo, po, 0 mg/kg, route gavage, dose level Control; for APTT / Bas / Eos / Fbg / Hb / Ht / Lym / MCH / MCHC / MCV / Mono / Neu / PT / Plat / RBC / Ret / WBC: tissue Blood; for KIDNEY_L / KIDNEY_R / KIDNEY_TOTAL: tissue Kidney; for LIVER: tissue Liver; for A/G / ALP / ALT / AST / BUN / CRE / Ca / Cl / DBIL / GLC / IP / K / LDH / Na / PL / RALB / TBIL / TC / TG / TP / gamma-GTP: tissue Plasma

Compound: NNC(=O)c1ccncc1 [ISONIAZID]
- TERMINAL_BW (3 h): 225.5 g
- APTT (3 h): 18.5 s
- Bas (3 h): 0%
- Eos (3 h): 1%
- Fbg (3 h): 232.2 mg/dL
- Hb (3 h): 13.5 g/dL
- Ht (3 h): 37.8%
- Lym (3 h): 80%
- MCH (3 h): 21.5 pg
- MCHC (3 h): 35.7%
- MCV (3 h): 60.3 fL
- Mono (3 h): 3%
- Neu (3 h): 15.6%
- PT (3 h): 11.8 s
- Plat (3 h): 121.9 x10_4/uL
- RBC (3 h): 627.2 x10_4/ul
- Ret (3 h): 8.1%
- WBC (3 h): 82.1 x10_2/uL
- KIDNEY_L (3 h): 1 g
- KIDNEY_R (3 h): 0.9 g
- KIDNEY_TOTAL (3 h): 1.9 g
- LIVER (3 h): 10.5 g
- A/G (3 h): 1.5
- ALP (3 h): 945.2 IU/L
- ALT (3 h): 34.2 IU/L
- AST (3 h): 66 IU/L
- BUN (3 h): 10 mg/dL
- CRE (3 h): 0.4 mg/dL
- Ca (3 h): 10.9 mg/dL
- Cl (3 h): 104.2 meq/L
- DBIL (3 h): 0.066 mg/dL
- GLC (3 h): 195.6 mg/dL
- IP (3 h): 8.8 mg/dL
- K (3 h): 4.1 meq/L
- LDH (3 h): 160 IU/L
- Na (3 h): 141.8 meq/L
- PL (3 h): 148.2 mg/dL
- RALB (3 h): 3.3 g/dL
- TBIL (3 h): 0.1 mg/dL
- TC (3 h): 80.8 mg/dL
- TG (3 h): 90.6 mg/dL
- TP (3 h): 5.5 g/dL
- gamma-GTP (3 h): 1.2 IU/L
- TERMINAL_BW (6 h): 221.6 g
- APTT (6 h): 19.9 s
- Bas (6 h): 0%
- Eos (6 h): 1%
- Fbg (6 h): 230 mg/dL
- Hb (6 h): 13.5 g/dL
- Ht (6 h): 37.6%
- Lym (6 h): 80.8%
- MCH (6 h): 21.8 pg
- MCHC (6 h): 35.8%
- MCV (6 h): 60.9 fL
- Mono (6 h): 3%
- Neu (6 h): 14.6%
- PT (6 h): 12.3 s
- Plat (6 h): 125.3 x10_4/uL
- RBC (6 h): 618.4 x10_4/ul
- Ret (6 h): 8%
- WBC (6 h): 96.3 x10_2/uL
- KIDNEY_L (6 h): 1 g
- KIDNEY_R (6 h): 0.9 g
- KIDNEY_TOTAL (6 h): 1.9 g
- LIVER (6 h): 9.2 g
- A/G (6 h): 1.6
- ALP (6 h): 976.8 IU/L
- ALT (6 h): 31.2 IU/L
- AST (6 h): 64.8 IU/L
- BUN (6 h): 8.8 mg/dL
- CRE (6 h): 0.4 mg/dL
- Ca (6 h): 10.4 mg/dL
- Cl (6 h): 104.2 meq/L
- DBIL (6 h): 0.068 mg/dL
- GLC (6 h): 197.6 mg/dL
- IP (6 h): 9.8 mg/dL
- K (6 h): 4.1 meq/L
- LDH (6 h): 156.6 IU/L
- Na (6 h): 141.2 meq/L
- PL (6 h): 133.8 mg/dL
- RALB (6 h): 3.3 g/dL
- TBIL (6 h): 0.1 mg/dL
- TC (6 h): 78.4 mg/dL
- TG (6 h): 52.8 mg/dL
- TP (6 h): 5.4 g/dL
- gamma-GTP (6 h): 1.2 IU/L
- TERMINAL_BW (9 h): 220.2 g
- APTT (9 h): 17.3 s
- Bas (9 h): 0%
- Eos (9 h): 0.8%
- Fbg (9 h): 221.8 mg/dL
- Hb (9 h): 13.5 g/dL
- Ht (9 h): 37.7%
- Lym (9 h): 79.2%
- MCH (9 h): 21.8 pg
- MCHC (9 h): 35.7%
- MCV (9 h): 61.1 fL
- Mono (9 h): 2%
- Neu (9 h): 16.6%
- PT (9 h): 12.5 s
- Plat (9 h): 120.7 x10_4/uL
- RBC (9 h): 617.4 x10_4/ul
- Ret (9 h): 7.7%
- WBC (9 h): 101.6 x10_2/uL
- KIDNEY_L (9 h): 0.9 g
- KIDNEY_R (9 h): 0.9 g
- KIDNEY_TOTAL (9 h): 1.9 g
- LIVER (9 h): 8.6 g
- A/G (9 h): 1.7
- ALP (9 h): 780 IU/L
- ALT (9 h): 31.4 IU/L
- AST (9 h): 70 IU/L
- BUN (9 h): 9.6 mg/dL
- CRE (9 h): 0.4 mg/dL
- Ca (9 h): 10.5 mg/dL
- Cl (9 h): 104.6 meq/L
- DBIL (9 h): 0.066 mg/dL
- GLC (9 h): 200.6 mg/dL
- IP (9 h): 9.7 mg/dL
- K (9 h): 3.8 meq/L
- LDH (9 h): 237.4 IU/L
- Na (9 h): 142.2 meq/L
- PL (9 h): 137.6 mg/dL
- RALB (9 h): 3.4 g/dL
- TBIL (9 h): 0.1 mg/dL
- TC (9 h): 74.8 mg/dL
- TG (9 h): 54.6 mg/dL
- TP (9 h): 5.4 g/dL
- gamma-GTP (9 h): 1 IU/L
- TERMINAL_BW (24 h): 234.8 g
- APTT (24 h): 18.6 s
- Bas (24 h): 0.4%
- Eos (24 h): 1.2%
- Fbg (24 h): 217.8 mg/dL
- Hb (24 h): 13.8 g/dL
- Ht (24 h): 38%
- Lym (24 h): 76%
- MCH (24 h): 22.6 pg
- MCHC (24 h): 36.2%
- MCV (24 h): 62.3 fL
- Mono (24 h): 2.8%
- Neu (24 h): 19.2%
- PT (24 h): 11.5 s
- Plat (24 h): 127.6 x10_4/uL
- RBC (24 h): 610 x10_4/ul
- Ret (24 h): 7.2%
- WBC (24 h): 106 x10_2/uL
- KIDNEY_L (24 h): 1 g
- KIDNEY_R (24 h): 1 g
- KIDNEY_TOTAL (24 h): 2 g
- LIVER (24 h): 10.9 g
- A/G (24 h): 1.6
- ALP (24 h): 930.6 IU/L
- ALT (24 h): 34 IU/L
- AST (24 h): 68.8 IU/L
- BUN (24 h): 14.8 mg/dL
- CRE (24 h): 0.4 mg/dL
- Ca (24 h): 10.9 mg/dL
- Cl (24 h): 103.8 meq/L
- DBIL (24 h): 0.058 mg/dL
- GLC (24 h): 191 mg/dL
- IP (24 h): 7.7 mg/dL
- K (24 h): 4.2 meq/L
- LDH (24 h): 190.8 IU/L
- Na (24 h): 141.8 meq/L
- PL (24 h): 154 mg/dL
- RALB (24 h): 3.5 g/dL
- TBIL (24 h): 0.1 mg/dL
- TC (24 h): 80 mg/dL
- TG (24 h): 114 mg/dL
- TP (24 h): 5.6 g/dL
- gamma-GTP (24 h): 1 IU/L

Reference: ChEMBL document CHEMBL3885861, “Open TG-GATES”
